Test results published in publication PMC3006138, “Fexinidazole – A New Oral Nitroimidazole Drug Candidate Entering Clinical Development for the Treatment of Sleeping Sickness” (PLoS Neglected Tropical Diseases, 2010).
“And” between values parts separate entries of the source, which are not always exact repeats. Equal entries are not always repeated. Where two headings read alike, the source gives them in different places.

Columns and labels:
[1] = Hepatocyte intrinsic clearance and metabolite profile; type: in vitro ADME, rat; settings: male, Sprague Dawley, rat, cryopreserved hepatocytes, 1 µM
Method: (§1) Fexinidazole was incubated with cryopreserved hepatocytes from male CD-1 mice, male Sprague Dawley rats, male beagle dogs, male cynomolgus monkeys, and from pooled white or African-American human donor samples (purchased commercially), at concentrations of 1 µM and 10 µM. […] The incubated samples were analyzed by LC-MS after extraction into acetonitrile.
(§2) A quality control analysis of fexinidazole was performed via 1H-NMR in DMSO and LC- […]
(§3) provided by the Swiss Tropical Institute (Basel, Switzerland).
(§4) Reagents and solvents were of analytical grade and obtained from Sigma-Aldrich (St. Louis, […]
(§5) Cryopreserved hepatocytes from the male CD1 mouse, lot CSI; male Sprague Dawley rat, lot LPL; male beagle dog, lot BWX; male cynomolgus monkey, lot EHH; and pooled human samples, lot MJI, were purchased from In Vitro Technologies Inc (Baltimore, Maryland, […]
(§6) 5.4. In vitro Incubations
(§7) On the day of the experiment a 10 mM stock solution of fexinidazole in DMSO was prepared and, within 3 hours, aliquots of this freshly prepared solution, after suitable dilution, were added to the incubation matrix, to reach fexinidazole final concentrations of 1 and 10 µM. The final percentage of DMSO was 0.01% in the incubation samples for the […]
(§8) On the day of experiment, the cryopreserved hepatocytes were thawed following the detailed instructions provided by the supplier.
(§9) The number of viable cells was determined using a Trypan Blue exclusion method.
(§10) 5.4.1. Intrinsic Clearance Study […]
(§11) µM with mouse, rat, dog, monkey and human hepatocytes (300000 cells/mL for the mouse and 1 million cells/mL for the other species) in a final incubation volume of 0.75 mL […]
(§12) Incubations were performed in duplicate in a 48-well plate under shaking. Sampling was performed using an automatic liquid handling system (Multiprobe II EX, Packard). At 0, 1, 5, 10, 15, 20, 30, 60 and 120 minutes, 50 µL aliquots of the incubates were taken, then 80 µL of ice-cold acetonitrile and 20 µL of 1 µM warfarin in acetonitrile (internal standard) were added, and samples centrifuged at 2000 rpm for 20 min. The supernatant was analyzed by LC-MS/MS. […]
(§13) the medium alone at t = 0 and 120 minutes.
(§14) For the determination of phase I and phase II activity of hepatocytes, 7-ethoxycoumarin (7-EC) 1 µM, and 7-hydroxycoumarin (7-HC) 30 µM were used as positive controls and incubated under the same conditions as fexinidazole. Aliquots of incubates were taken at 0, 10, 20, 30, 60 and 120 minutes and processed as fexinidazole samples.
(§15) 5.4.2. Metabolite Profile Study
(§16) For metabolite profiling, fexinidazole was incubated at a concentration of 10 µM with mouse, rat, dog, monkey and human hepatocytes (300000 cells/mL for the mouse and 1 million cells/mL for the other species) in a final incubation volume of 2 mL Leibovitz L-15 […]
(§17) Aliquots of the incubation samples were taken at t = 0, 30 and 120 minutes; the metabolism was stopped by the addition of an equal volume of cold acetonitrile and the samples centrifuged at 1500 rpm for 20 min. The supernatant was stored at -20°C until analysis. Control incubations were performed with the compound in the medium alone […]
(§18) 5.5. Analysis of Samples for Intrinsic Clearance Determination
(§19) The analysis of the samples for intrinsic clearance determination was performed by an LC-MS/MS method, using the following conditions:
(§20) HPLC Equipment and Conditions
(§21) HPLC system Agilent 1100 binary pump (Agilent, Palo Alto, USA)
(§22) Autosampler CTC Pal (Alfatech, San Jose, USA)
(§23) Analytical column Guard Column SB-C8 4.6 x 12.5 mm, 5 µm (Zorbax)
(§24) Column temperature ambient
(§25) Mobile phase A 10 mM ammonium formate pH 4.0: acetonitrile (95:5, v:v)
(§26) Mobile phase B 10 mM ammonium formate pH 4.0: acetonitrile (5:95, v:v) […]
(§27) Gradient conditions Step Total time (min) flow (µL/min) %A % B […]
(§28) MS Equipment and Conditions
(§29) Mass spectrometer API 4000 Triple Quadrupole (MDS-Sciex, Toronto, […]
(§30) Source Turbo Ion Spray (TIS)
(§31) Ion mode Positive for fexinidazole and 7-EC.
(§32) Negative for 7-HC, 7-HC sulphate and 7-HC glucuronide.

[2] = as above; type: in vitro ADME, human; settings: human
Method: as §1
Fexinidazole sulfoxide, lot 1106-I-0170, 99.3% purity, and fexinidazole sulfone, lot 1106-I-0171, 99.9% purity, were provided by the Sponsor.
Cryopreserved hepatocytes of five single donors, lots EHI, REL, KSE […]
ZIJ and MRS, were purchased from In Vitro Technologies Inc (Baltimore, Maryland, USA).
The certificates of analysis are reported in Appendix 1.
as §4
7.5. In Vitro Incubations
as §7
The cryopreserved hepatocytes were thawed according to the supplier’s procedure and the number of viable cells was determined using the Trypan Blue exclusion method. Viabilities were 92% for lot EHI, 89% for lot REL, 82% for lot KSE, 86% for lot ZIJ and 86% for lot MRS in the intrinsic clearance study. In the metabolite profile study viabilities were 91% for lot EHI, 90% for lot REL, 85% for lot KSE, 84% for lot ZIJ and 87% for lot MRS.
Afterwards, the same amount of viable cells for each donor were pooled and used for the incubations of fexinidazole.
7.5.1. Intrinsic Clearance Study […]
as §12, with “µM with pooled human hepatocytes (1 million cells/mL) in a final incubation volume of 1 mL Leibovitz L-15 medium, at 37°C. Incubations” for “Incubations”
The chemical stability of fexinidazole was checked by incubating the compound at 37°C in the medium alone at t = 0 and 120 minutes.
For the determination of phase I and phase II activities of hepatocytes, 7-ethoxycoumarin (7-ETC) 1 µM, and 7-hydroxycoumarin (7-HC) 30 µM were used as positive controls and incubated under the same conditions as fexinidazole. Aliquots of incubates were taken at 0, 1, 5, 10, 15, 20, 30, 60 and 120 minutes and processed as fexinidazole samples.
7.5.2. Metabolite Profile Study
For metabolite profiling, fexinidazole was incubated at a concentration of 10 µM with pooled human hepatocytes (1 million cells/mL) in a final incubation volume of 2 mL Leibovitz L-15 medium, at 37°C. Aliquots of the incubation samples were taken at t = 0, 30 and 120 minutes; the metabolism was stopped by the addition of an equal volume of cold acetonitrile and the samples centrifuged at 1100 rpm for 20 min. The supernatant was stored at -20°C until analysis. Control incubations were performed with the compound in the medium alone for 120 minutes.
7.6. Analysis of the Samples of Intrinsic Clearance Study
as §19, §20
HPLC system 1100 binary pump (Agilent, Palo Alto, USA)
Autosampler 2777 (Waters)
as §23, §24, §25, §26, §27

[3] = as above; type: in vitro ADME, human; settings: human, cryopreserved pooled hepatocytes, 1 µM
Method: as §1, §2, §3, §4, §5, §6, §7, §8, §9, §10, §11, §12, §13, §14, §15, §16, §17, §18, §19, §20, §21, §22, §23, §24, §25, §26, §27, §28, §29, §30, §31, §32

[4] = as above; type: in vitro ADME, dog; settings: male, beagle, dog, cryopreserved hepatocytes, 1 µM
Method: as §1, §2, §3, §4, §5, §6, §7, §8, §9, §10, §11, §12, §13, §14, §15, §16, §17, §18, §19, §20, §21, §22, §23, §24, §25, §26, §27, §28, §29, §30, §31, §32

[5] = as above; type: in vitro ADME, cynomolgus monkey; settings: male, cynomolgus, cynomolgus monkey, cryopreserved hepatocytes, 1 µM
Method: as §1, §2, §3, §4, §5, §6, §7, §8, §9, §10, §11, §12, §13, §14, §15, §16, §17, §18, §19, §20, §21, §22, §23, §24, §25, §26, §27, §28, §29, §30, §31, §32

[6] = as above; type: in vitro ADME, mouse; settings: male, CD-1, mouse, cryopreserved hepatocytes, 1 µM
Method: as §1, §2, §3, §4, §5, §6, §7, §8, §9, §10, §11, §12, §13, §14, §15, §16, §17, §18, §19, §20, §21, §22, §23, §24, §25, §26, §27, §28, §29, §30, §31, §32

[7] = system: bone marrow polychromatic erythrocytes; test: In vivo bone marrow micronucleus test; parameters: species or system mouse; settings: 4.0 mg/kg, positive control
Method: Groups of six young adult male Crl:CD-1 (ICR) mice were treated with fexinidazole at two oral doses of 0, 500, 1000, or 2000 mg/kg given 24 h apart, and bone marrows were harvested 24 h after the second dose. Slides of bone marrow cells were prepared, Giemsa stained, and 2000 polychromatic erythrocytes per animal were scored for micronuclei.

[8] = system: human lymphocytes; test: In vitro micronucleus test; type: cell-based; settings: 6.25 µg/mL, +S9, positive control
Method: Duplicate human lymphocyte cultures were prepared from the pooled blood of two donors in two independent experiments. […] The test concentrations for micronucleus analysis were selected by evaluating the effect of fexinidazole on the replication index (RI). In each experiment, micronuclei were analysed at three concentrations. Similar tests were carried out on fexinidazole sulfone. As per the Ames test, this was carried out in the absence of rat liver S9 only.

[9] = system: L-6 rat myoblast cells; test: Cytotoxicity assay; type: cell-based; settings: 72 h, read-out: IC50
Method: (§33) 10 µL of Alamar Blue was added for the final 3 h to determine viability. […] The IC50 values were calculated from the sigmoidal inhibition curves. For cytotoxicity, 4×10^4/mL L-6 rat skeletal myoblast cells were used, and incubations and assessments carried out as above.

[10] = system: T. b. rhodesiense (STIB 900); test: In vitro trypanocidal assay (Alamar Blue); type: cell-based, Trypanosoma brucei rhodesiense; settings: Trypanosoma brucei, 72 h; read-out: IC50
Method: as §33

[11] = system: T. b. gambiense (STIB 930); test: In vitro trypanocidal assay (Alamar Blue); type: cell-based, Trypanosoma brucei gambiense; settings: Trypanosoma brucei, 72 h; read-out: IC50
Method: Parasites were cultured with or without the test article at a concentration of 3×10^4/mL in Minimal Essential Medium, according to Baltz et al., with the following modifications: 0.2 mM 2-mercaptoethanol, 1 mM Na-pyruvate, 0.5 mM hypoxanthine and 15% heat inactivated horse serum at 37°C in 5% CO2 in 96-well microtitre plates for 72 h. 10 µL of Alamar Blue was added for the final 3 h to determine viability. The assay was assessed by reading the fluorescence in each well at an excitation wavelength of 536 nm and at an emission wavelength of 588 nm. The IC50 values were calculated from the sigmoidal inhibition curves. For cytotoxicity, 4×10^4/mL L-6 rat skeletal myoblast cells were used, and incubations and assessments carried out as above.

[12] = system: rat liver cells; test: Ex vivo unscheduled DNA synthesis; type: in vivo; settings: 10 mg/kg, positive control
Method: Groups of young male Sprague-Dawley rats received fexinidazole at doses of 500, 1000, or 2000 mg/kg orally, and the livers were sampled either 2–4 h or 12–14 h after administration. Hepatocyte suspensions were prepared and incubated in the presence of […] thymidine. Slides of fixed hepatocytes were coated in photographic emulsion and stored for 14 days at 4°C in the dark. The silver grains above the nuclei or cytoplasm (background) were counted, providing a measure of DNA uptake during DNA repair. The difference between these two counts indicated the extent of DNA repair (nuclear net grain count).

[13] = One-electron reduction potential by pulse radiolysis; type: physicochemical
Method: One-electron reduction potentials were determined by pulse radiolysis following an established procedure.

CCOc1ccc2ccc(=O)oc2c1 [7-ethoxycoumarin, reference compound]
half-life at 1 µM [1]: 13.2 min | CLint scaled at 1 µM ([1]; read-out: CLint in vitro): 251 mL/min/kg | hepatocyte CLint at 1 µM ([1]; read-out: CLint in vitro): 52.4 µL/min/1e6 cells | half-life at 1 µM [2]: 6.4 min | CLint scaled at 1 µM ([2]; read-out: CLint in vitro): 258 mL/min/kg | hepatocyte CLint at 1 µM ([2]; read-out: CLint in vitro): 108 µL/min/1e6 cells | half-life at 1 µM [3]: 4.8 min | CLint scaled at 1 µM ([3]; read-out: CLint in vitro): 345 mL/min/kg | hepatocyte CLint at 1 µM ([3]; read-out: CLint in vitro): 144 µL/min/1e6 cells | half-life at 1 µM [4]: 1.7 min | CLint scaled at 1 µM ([4]; read-out: CLint in vitro): 3110 mL/min/kg | hepatocyte CLint at 1 µM ([4]; read-out: CLint in vitro): 405 µL/min/1e6 cells | half-life at 1 µM [5]: 2.5 min | CLint scaled at 1 µM ([5]; read-out: CLint in vitro): 1480 mL/min/kg | hepatocyte CLint at 1 µM ([5]; read-out: CLint in vitro): 272 µL/min/1e6 cells | half-life at 1 µM [6]: 2.6 min | CLint scaled at 1 µM ([6]; read-out: CLint in vitro): 2380 mL/min/kg | hepatocyte CLint at 1 µM ([6]; read-out: CLint in vitro): 901 µL/min/1e6 cells

O=P1(N(CCCl)CCCl)NCCCO1 (stereo not drawn) [Cyclophosphamide, reference compound]
Micronucleated PCE/1000 [7]: 19.3 | PCE/NCE [7]: 0.89 | Micronucleated binucleate cells ([8]; 24-h PHA): 3.60% | Micronucleated binucleate cells ([8]; 48-h PHA): 12.85%

NCCCC(N)(C(=O)O)C(F)F (stereo not drawn) [Eflornithine]
IC50 [9]: 12 µg/mL and 51 µM | IC50 [10]: 0.9 µg/mL and 3.8 µM | IC50 [11]: 0.4 µg/mL and 1.67 µM

CN(C)N=O [dimethylnitrosamine, reference compound]
Net nuclear grain count (2–4 h) [12]: 8.9

Cc1ncc([N+](=O)[O-])n1CCO [metronidazole, reference compound]
single electron redox potential [13]: −516 mV
